Tested on: scalp hair follicles
Assay: Epilation force measured with trichotillometer vs placebo (Example 5)
Format: in vivo, human
Settings: 10% solution vs placebo, average of 10 subjects; listed as 10% PE
Protocol: To evaluate the effect of a topically applied α1-AR agonist on the force required to pluck hairs from the scalp, a hand-held spring dynamometer, or “trichotillometer” was used (8). The trichotillometer records the maximum force threshold, in grams, required to pluck a single hair from the scalp; the performance and statistical variance of the instrument have been reported previously (8-10). Force measurements were performed using the trichotillometer on 10 subjects. The frontal area of scalp was divided into two 8×10 cm2 areas. On the right side 0.5 mL of a placebo vehicle was applied. […] After 45 minutes, ten hairs were plucked from each of the target areas with the trichotillometer.

CNC[C@H](O)c1cccc(O)c1 [phenylephrine]
average increase of epilation force threshold: 172%

From patent US20260041652A1, “SYSTEM AND METHOD FOR PREVENTING ALOPECIA” (Follea International, priority 2024, published 2026)
